Measured values reported in publication PMC7228900, “From sequence to function: a new workflow for nitrilase identification” (Applied Microbiology and Biotechnology, 2020).

Test system: T1, Nit09
T1 construct: His6-tagged, expressed in E. coli TOP10 from pBAD18, Ni-TED purified; gene 1005 bp
Assay: GDH-coupled NADH oxidation at […] nm, Michaelis-Menten fit
Format: biochemical, uncultured bacterium
Details: 37 °C, 0.1 M HEPES pH 8.0; fit up to 6 mM, substrate inhibition above 10 mM

In the case of `N#CCc1ccccc1` [phenylacetonitrile], the Km is reported as 1290 µM.
